Paper PMC5951806, “Rapid labelling and covalent inhibition of intracellular native proteins using ligand-directed N-acyl-N-alkyl sulfonamide” (Nature Communications, 2018)

Assays:
Test in all cases: TMT LC-MSMS of 11-labelled proteins
[1] = biological target: Sodium/potassium-transporting ATPase subunit alpha-1 (ATP1A1) (Homo sapiens, UniProt P05023); assay type: cell-based
[2] = biological target: T1, peroxiredoxin-1 (PRDX1) (Homo sapiens, UniProt Q06830); assay type: cell-based
T1 sequence (Q06830 1-199): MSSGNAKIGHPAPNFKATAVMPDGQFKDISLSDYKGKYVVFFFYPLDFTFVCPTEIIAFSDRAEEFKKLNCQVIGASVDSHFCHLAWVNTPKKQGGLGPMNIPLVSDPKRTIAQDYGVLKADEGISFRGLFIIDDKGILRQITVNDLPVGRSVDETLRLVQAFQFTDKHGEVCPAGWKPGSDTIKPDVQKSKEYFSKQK

[3] = tested on: Isoform 2 of Transketolase (TKT); assay type: cell-based, Homo sapiens
Excerpt: (§1) The labelled proteins were enriched by immunoprecipitation with an anti-fluorescein antibody and tryptically digested in gel. Digested peptides were modified with Light- (L-), Medium- (M-), or Heavy- (H-) TMT reagent for samples treated with 11, 11 with PU-H71 (as competitive condition), or DMSO (vehicle), respectively, and mixed in a 1:1:1 ratio for LC-MSMS analysis. We performed three experimental replicates, in which proteins detected and quantified at least twice were selected as identified proteins. According to the related approach of Cravatt et al[44], the proteins having L/H (11/DMSO) ratios >5 were defined as 11-labelled proteins. […] On the basis of these criteria, we identified 6 proteins that react with 11, including three ligand-specific targets (Hsp90α (HSP90AA1), Hsp90β (HSP90AB1), and Grp94 (HSP90B1)) and three off-targets (Trifunctional enzyme subunit α (HADHA), Tubulin-α (TUBA1B), and ADP/ATP translocase 3 (SLC25A6)) (Fig. 5d, e and Supplementary Data 1). […] Grp94, a HSP90 isomer, was previously reported to be a PU-H71 specific target. TRAP-1, another Hsp90 isomer that can bind PU-H71, on the other hand, was not identified as 11-target by our criteria.
(§2) SKBR3 human breast cancer cells (2.0 × 10^6 cells) were seeded on a 10 cm dish and cultured for 3 days in McCoy’s 5A in a 5% CO2 humidified chamber at 37 °C. […] As competitive experiments, the labelling was conducted in the presence of PU-H71 (10 µM). After labelling, the cells were washed twice with PBS, and lysed with RIPA buffer. […] The supernatant was mixed with chilled acetone and incubated overnight at −80 °C. The protein precipitates were solubilized by sonication in 1 mL of RIPA buffer containing 1% SDS, and then 10-fold diluted with RIPA buffer to reduce SDS concentration to c.a. 0.1%. The protein solution (containing 1 mg of protein) was mixed with Protein G Sepharose 4 Fast Flow (GE Healthcare) and rotated at 4 °C for 1 h. After removal of the beads, the remaining supernatant was mixed with anti-fluorescein antibody (Abcam, ab19491, 7:10000) and rotated at 4 °C for 1 h, followed by addition of fresh Protein G Sepharose 4 Fast Flow and further incubation at 4 °C for 4 h. The beads were washed five times with RIPA buffer and once with PBS. Proteins were eluted from the beads by addition of 2 × sample buffer containing 100 mM DTT and boiling at 95 °C for 5 min. The samples were subjected to a 7.5% SDS–PAGE gel (Mini-PROTEAN TGX Gels, BioRad), and electrophoresed as the migration distance of dye front is about 10 mm. Each lane was excised (height, 10 mm), and treated with a 47.5% methanol / 47.5% pure water / 5% acetic acid for 20 min, a 50% methanol / 50% pure water for 10 min, and in pure water for 10 min. The gel pieces were dehydrated with 100% acetonitrile, and then swelled with 200 μL of 100 mM TEAB (triethylamine bicarbonate) buffer containing 10 mM DTT and heated at 56 °C for 30 min. The solutions were replaced with 200 µL of 100 mM TEAB buffer containing 55 mM iodoacetamide and incubated for 45 min in the dark. The gel pieces were washed with 100 mM TEAB buffer and dehydrated in acetonitrile. This step was repeated once. The gels were reswelled in 100 mM TEAB buffer containing 10 ng/μL Sequencing Grade Trypsin (Promega) and incubated overnight at 37 °C. To the gels, 50 μL of an extraction solution (50% acetonitrile, 0.1% TFA) was added. After 10 min incubation, the supernatants were collected to new tubes, and this process was repeated twice. Extracted peptides were dried in vacuo and reconstituted with 25 μL of 100 mM TEAB buffer.

[4] = tested on: Isoform 4 of 4F2 cell-surface antigen heavy chain (SLC3A2); assay type: cell-based, Homo sapiens
Excerpt: as §1, §2

[5] = tested on: Isoform Long of Glucose-6-phosphate 1-dehydrogenase (G6PD); assay type: cell-based, Homo sapiens
Excerpt: as §1, §2

[6] = sheet Exp1, SKBR3 cells, 11 0.5 µM 3 h vs DMSO
[7] = sheet Exp1, SKBR3 cells, 11 0.5 µM 3 h vs with PU-H71 10 µM
[8] = sheet Merged, SKBR3 cells, 11 0.5 µM 3 h vs DMSO
[9] = sheet Merged, SKBR3 cells, 11 0.5 µM 3 h vs with PU-H71 10 µM

Compound: CC(=O)Oc1ccc2c(c1)Oc1cc(OC(C)=O)ccc1C21OC(=O)c2cc(C(=O)NCCOCCOCCNC(=O)CCCC(=O)N(CC#N)S(=O)(=O)c3ccc(C(=O)NCCCn4c(Sc5cc6c(cc5I)OCO6)nc5c(N)ncnc54)cc3)ccc21 [compound 11]
- Abundance Ratio: (11) / (11 with PU-H71) ([1]; Exp3, ATP1A1): 0.969
- Abundance Ratio: (11) / (DMSO) ([1]; Exp3, ATP1A1): 3.731
- Abundances (Grouped): 11 ([1]; Exp3, ATP1A1): 59.7
- Abundances (Grouped): 11 with PU-H71 ([1]; Exp3, ATP1A1): 61.6
- Abundance Ratio: (11) / (DMSO) [1, 6]: 1.112
- Abundance Ratio: (11) / (11 with PU-H71) [1, 7]: 0.455
- Abundance Ratio: (11) / (11 with PU-H71) ([1]; sheet Exp2, ATP1A1): 0.735
- Abundance Ratio: (11) / (DMSO) ([1]; sheet Exp2, ATP1A1): 2.007
- Abundances (Grouped): 11 ([1]; sheet Exp2, ATP1A1): 162
- Abundances (Grouped): 11 with PU-H71 ([1]; sheet Exp2, ATP1A1): 220.4
- Abundance Ratio: (11) / (DMSO) [1, 8]: 1.112
- Abundance Ratio: (11) / (11 with PU-H71) [1, 9]: 0.455
- Abundance Ratio: (11) / (11 with PU-H71) ([2]; Exp3, PRDX1): 0.822
- Abundance Ratio: (11) / (DMSO) ([2]; Exp3, PRDX1): 2.683
- Abundances (Grouped): 11 ([2]; Exp3, PRDX1): 295.4
- Abundances (Grouped): 11 with PU-H71 ([2]; Exp3, PRDX1): 359.3
- Abundance Ratio: (11) / (DMSO) [2, 6]: 2.358
- Abundance Ratio: (11) / (11 with PU-H71) [2, 7]: 0.804
- Abundance Ratio: (11) / (11 with PU-H71) ([2]; sheet Exp2, PRDX1): 0.861
- Abundance Ratio: (11) / (DMSO) ([2]; sheet Exp2, PRDX1): 2.62
- Abundances (Grouped): 11 ([2]; sheet Exp2, PRDX1): 93.8
- Abundances (Grouped): 11 with PU-H71 ([2]; sheet Exp2, PRDX1): 109
- Abundance Ratio: (11) / (DMSO) [2, 8]: 2.219
- Abundance Ratio: (11) / (11 with PU-H71) [2, 9]: 0.847
- Abundance Ratio: (11) / (11 with PU-H71) ([3]; Exp3, TKT): 0.724
- Abundance Ratio: (11) / (DMSO) ([3]; Exp3, TKT): 1.695
- Abundances (Grouped): 11 ([3]; Exp3, TKT): 45.6
- Abundances (Grouped): 11 with PU-H71 ([3]; Exp3, TKT): 63
- Abundance Ratio: (11) / (DMSO) [3, 6]: 2.131
- Abundance Ratio: (11) / (11 with PU-H71) [3, 7]: 0.917
- Abundance Ratio: (11) / (11 with PU-H71) ([3]; sheet Exp2, TKT): 0.939
- Abundance Ratio: (11) / (DMSO) ([3]; sheet Exp2, TKT): 2.163
- Abundances (Grouped): 11 ([3]; sheet Exp2, TKT): 103.4
- Abundances (Grouped): 11 with PU-H71 ([3]; sheet Exp2, TKT): 110.1
- Abundance Ratio: (11) / (DMSO) [3, 8]: 2.131
- Abundance Ratio: (11) / (11 with PU-H71) [3, 9]: 0.917
- Abundance Ratio: (11) / (11 with PU-H71) ([4]; Exp3, SLC3A2): 0.823
- Abundance Ratio: (11) / (DMSO) ([4]; Exp3, SLC3A2): 3.728
- Abundances (Grouped): 11 ([4]; Exp3, SLC3A2): 115.2
- Abundances (Grouped): 11 with PU-H71 ([4]; Exp3, SLC3A2): 140
- Abundance Ratio: (11) / (DMSO) [4, 6]: 3.951
- Abundance Ratio: (11) / (11 with PU-H71) [4, 7]: 0.737
- Abundance Ratio: (11) / (11 with PU-H71) ([4]; sheet Exp2, SLC3A2): 0.802
- Abundance Ratio: (11) / (DMSO) ([4]; sheet Exp2, SLC3A2): 3.119
- Abundances (Grouped): 11 ([4]; sheet Exp2, SLC3A2): 91.7
- Abundances (Grouped): 11 with PU-H71 ([4]; sheet Exp2, SLC3A2): 114.4
- Abundance Ratio: (11) / (DMSO) [4, 8]: 3.119
- Abundance Ratio: (11) / (11 with PU-H71) [4, 9]: 0.802
- Abundance Ratio: (11) / (DMSO) [5, 6]: 6.472
- Abundance Ratio: (11) / (11 with PU-H71) [5, 7]: 0.948
- Abundance Ratio: (11) / (11 with PU-H71) ([5]; sheet Exp2, G6PD): 0.848
- Abundance Ratio: (11) / (DMSO) ([5]; sheet Exp2, G6PD): 1.663
- Abundances (Grouped): 11 ([5]; sheet Exp2, G6PD): 63.2
- Abundances (Grouped): 11 with PU-H71 ([5]; sheet Exp2, G6PD, with PU-H71): 74.5
- Abundance Ratio: (11) / (DMSO) [5, 8]: 3.281
- Abundance Ratio: (11) / (11 with PU-H71) [5, 9]: 0.897
